How the values were obtained:
human MCF7 tumor cells = experiment: Proliferation assay (crystal violet); type: cell-based; conditions: 96 h, 4 days incubation, read-out: MCF-7 IC50
Experimental: Cultivated human MCF7 tumor cells were flattened out at a density of 5000 cells/measuring point in a 96-well multititer plate in 200 μl of the corresponding growth medium. After 24 hours, the cells of one plate (zero-point plate) were colored with crystal violet (see below), while the medium of the other plates was replaced by fresh culture medium (200 μl), to which the test substances were added in various concentrations (0 μm, as well as in the range of 0.01-30 μm; the final concentration of the solvent dimethyl sulfoxide was 0.5%). The cells were incubated for 4 days in the presence of test substances. The cell proliferation was determined by coloring the cells with crystal violet: the cells were fixed by adding 20 μl/measuring point of an 11% glutaric aldehyde solution for 15 minutes at room temperature. After three washing cycles of the fixed cells with water, the plates were dried at room temperature. The cells were colored by adding 100 μl/measuring point of a 0.1% crystal violet solution (the pH was set at 3 by adding acetic acid). After three washing cycles of the colored cells with water, the plates were dried at room temperature. The dye was dissolved by adding 100 μl/measuring point of a 10% acetic acid solution. The extinction was determined by photometry at a wavelength of 595 nm. The change of cell growth, in percent, was calculated by standardization of the measured values to the extinction values of the zero-point plate (=0%) and the extinction of the untreated (0 μm) cells (=100%).

Tie2 = Tie2 (Homo sapiens, UniProt Q02763); experiment: Tie2 kinase assay; type: biochemical; conditions: poly-(Glu4Tyr) substrate, 33P-ATP, 10 minutes at room temperature; read-out: Tie 2 IC50
Experimental: (§1) KDR (VEGFR II) and Tie2 Assay
(§2) In a microtiter plate (without protein binding!) that tapers to a point, the solutions are mixed in the following sequence:
(§3) 10 μl of substrate mixture
(§4) 10 μl of inhibitor dilution
(§5) 10 μl of enzyme solution.
(§6) It is mixed thoroughly and incubated for 10 minutes at room temperature. Then, 10 μl of the stop solution is added, mixed, and 10 μl of the solution is transferred to a P 81, phosphocellulose filter. It is washed several times in 0.1 M phosphoric acid. The filter paper is dried, coated with Meltilex and measured in a microbeta. The IC50 values are determined from the inhibitor concentration that is necessary to inhibit the phosphate incorporation to 50% of the uninhibited incorporation after removal of the blank reading (EDTA-stopped reaction).
(§7) Substrate solvent: 10 mmol of DTT, 10 mmol of MnCl2, 100 mmol of MgCl2 (DTT slightly oxidized, frozen at −80° C.). Before the test, 1:10 diluted with H2O.
(§8) Enzyme solvent: 120 mmol of TrisCl, pH 7.5; 10 μmol of Na3VO4.
(§9) 10 μl of volume of ATP stock solution A+25 μCi γ-^33P-ATP (about 2.5 μl of stock solution B)+30 μl of poly-(Glu4Tyr) stock solution C+1.21 ml of substrate solvent
(§10) Substances corresponding to the dilutions, 3% DMSO in substrate solvent as a control
(§11) 11.25 μg of the enzyme stock solution (KDR and FLT-1 kinase and Tie2) are diluted at of enzyme solvent (other amounts in the case of other activity!).
(§12) Stop Solution: […] of EDTA, pH 7.0
(§13) Washing Solution: 0.5% phosphoric acid

KDR (VEGFR II) = KDR (VEGFR II) (Homo sapiens, UniProt P35968); experiment: KDR (VEGFR II) kinase assay; type: biochemical; conditions: poly-(Glu4Tyr) substrate, 33P-ATP, 10 minutes at room temperature
Experimental: as §1, §2, §3, §4, §5, §6, §7, §8, §9, §10, §11, §12, §13

CDK2/CycE = target: T1, CDK2/CycE (Homo sapiens, UniProt P24941); experiment: CDK2/CycE kinase assay; type: biochemical; conditions: histone IIIS substrate, 0.5 μm ATP, 15 minutes at 22° C.
T1 construct: GST; purchased Dr. Dieter Marme, Klinik für Tumorbiologie, Freiburg (obtained from an outside laboratory, not a commercial vendor); host or cells: baculovirus-infected insect cells (Sf9)
Experimental: Recombinant CDK2- and CycE-GST-fusion proteins, purified from baculovirus-infected insect cells (Sf9), were obtained by Dr. Dieter Marme, Klinik für Tumorbiologie [Clinic for Tumor Biology], Freiburg. Histone IIIS, which was used as a kinase substrate, was purchased by the Sigma Company.
CDK2/CycE (50 ng/measuring point) was incubated for 15 minutes at 22° C. in the presence of various concentrations of test substances (0 μm, as well as within the range of 0.01-100 μm) in assay buffer [50 mmol of tris/HCl pH 8.0, 10 mmol of MgCl2, 0.1 mmol of Na ortho-vanadate, 1.0 mmol of dithiothreitol, 0.5 μm of adenosine triphosphate (ATP), 10 μg/measuring point of histone IIIS, 0.2 μCi/measuring point of ^33P-gamma ATP, 0.05% NP40, 12.5% dimethyl sulfoxide]. The reaction was stopped by adding EDTA solution (250 mmol, pH 8.0, 14 μl/measuring point).
From each reaction batch, 10 μl was applied to P30 filter strips (Wallac Company), and non-incorporated ^33P-ATP was removed by subjecting the filter strips to three washing cycles for 10 minutes each in 0.5% phosphoric acid. After the filter strips were dried for one hour at 70° C., the filter strips were covered with scintillator strips (MeltiLex™ A, Wallac Company) and baked for one hour at 90° C. The amount of incorporated ^33P (substrate phosphorylation) was determined by scintillation measurement in a gamma-radiation measuring device (Wallac).

Sequence of Tie2 (Q02763 23-1124, species assumed): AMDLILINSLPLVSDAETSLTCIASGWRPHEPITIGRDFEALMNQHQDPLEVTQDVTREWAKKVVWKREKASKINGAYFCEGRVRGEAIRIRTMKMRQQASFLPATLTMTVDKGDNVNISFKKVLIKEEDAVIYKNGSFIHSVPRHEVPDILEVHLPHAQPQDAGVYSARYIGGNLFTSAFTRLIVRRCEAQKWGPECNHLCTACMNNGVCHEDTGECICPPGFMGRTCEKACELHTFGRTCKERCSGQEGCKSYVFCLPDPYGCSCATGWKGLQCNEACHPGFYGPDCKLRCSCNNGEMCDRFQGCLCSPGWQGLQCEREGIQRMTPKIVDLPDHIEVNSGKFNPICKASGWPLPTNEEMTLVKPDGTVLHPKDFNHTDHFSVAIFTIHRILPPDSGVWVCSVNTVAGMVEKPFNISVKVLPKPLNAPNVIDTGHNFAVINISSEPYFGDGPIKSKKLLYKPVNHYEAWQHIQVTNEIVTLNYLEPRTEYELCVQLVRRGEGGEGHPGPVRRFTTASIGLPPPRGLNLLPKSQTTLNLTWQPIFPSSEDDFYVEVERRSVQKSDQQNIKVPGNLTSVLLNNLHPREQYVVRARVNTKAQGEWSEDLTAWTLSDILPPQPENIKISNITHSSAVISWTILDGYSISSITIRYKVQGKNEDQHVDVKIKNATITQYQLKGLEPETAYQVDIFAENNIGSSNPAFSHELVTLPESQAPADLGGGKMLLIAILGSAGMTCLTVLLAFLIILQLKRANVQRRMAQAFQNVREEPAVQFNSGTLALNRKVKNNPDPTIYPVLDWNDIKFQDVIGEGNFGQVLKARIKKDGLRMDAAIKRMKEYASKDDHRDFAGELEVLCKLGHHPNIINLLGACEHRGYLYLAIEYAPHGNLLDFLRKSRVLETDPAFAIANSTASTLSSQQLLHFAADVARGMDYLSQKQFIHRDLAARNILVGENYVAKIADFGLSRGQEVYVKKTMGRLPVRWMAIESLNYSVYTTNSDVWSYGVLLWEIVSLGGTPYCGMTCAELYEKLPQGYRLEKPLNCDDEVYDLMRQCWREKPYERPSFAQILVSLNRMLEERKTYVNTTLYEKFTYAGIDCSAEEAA
Sequence of KDR (VEGFR II) (P35968 20-1356, species assumed): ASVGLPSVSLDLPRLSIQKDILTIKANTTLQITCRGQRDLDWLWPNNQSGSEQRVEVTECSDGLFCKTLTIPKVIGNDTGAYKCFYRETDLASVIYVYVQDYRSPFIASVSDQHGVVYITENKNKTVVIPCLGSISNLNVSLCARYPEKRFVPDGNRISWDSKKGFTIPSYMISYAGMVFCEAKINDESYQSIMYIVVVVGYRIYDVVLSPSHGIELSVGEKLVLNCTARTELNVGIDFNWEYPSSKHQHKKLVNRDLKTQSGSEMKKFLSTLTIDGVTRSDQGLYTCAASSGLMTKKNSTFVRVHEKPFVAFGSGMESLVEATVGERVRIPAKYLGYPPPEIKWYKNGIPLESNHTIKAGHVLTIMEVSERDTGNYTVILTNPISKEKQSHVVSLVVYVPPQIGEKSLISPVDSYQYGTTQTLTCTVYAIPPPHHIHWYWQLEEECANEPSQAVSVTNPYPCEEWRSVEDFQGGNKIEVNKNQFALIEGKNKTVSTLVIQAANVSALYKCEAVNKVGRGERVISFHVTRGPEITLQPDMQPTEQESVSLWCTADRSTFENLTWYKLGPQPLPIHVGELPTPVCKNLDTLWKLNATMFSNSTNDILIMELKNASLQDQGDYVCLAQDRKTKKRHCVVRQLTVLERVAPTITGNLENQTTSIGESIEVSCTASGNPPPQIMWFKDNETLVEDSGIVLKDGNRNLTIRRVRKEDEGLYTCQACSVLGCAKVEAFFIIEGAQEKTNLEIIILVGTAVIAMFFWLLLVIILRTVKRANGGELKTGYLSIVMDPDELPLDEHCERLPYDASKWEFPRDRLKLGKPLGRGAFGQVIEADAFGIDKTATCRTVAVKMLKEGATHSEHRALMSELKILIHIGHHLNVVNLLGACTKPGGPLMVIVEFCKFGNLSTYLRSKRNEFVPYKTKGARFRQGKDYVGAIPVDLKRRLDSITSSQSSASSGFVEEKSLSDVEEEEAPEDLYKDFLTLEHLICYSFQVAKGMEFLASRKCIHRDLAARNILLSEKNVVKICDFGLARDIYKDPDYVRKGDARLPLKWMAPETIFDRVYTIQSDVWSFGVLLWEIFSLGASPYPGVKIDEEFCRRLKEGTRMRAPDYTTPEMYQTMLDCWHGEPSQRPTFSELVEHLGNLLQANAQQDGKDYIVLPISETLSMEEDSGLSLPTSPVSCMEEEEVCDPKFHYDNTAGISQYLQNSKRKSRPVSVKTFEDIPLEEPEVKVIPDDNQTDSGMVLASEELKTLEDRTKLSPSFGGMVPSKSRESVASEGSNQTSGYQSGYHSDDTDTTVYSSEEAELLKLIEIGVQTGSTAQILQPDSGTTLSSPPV

IC50 (human MCF7 tumor cells) | IC50 (Tie2) | IC50 (KDR (VEGFR II)) | melting point | IC50 (CDK2/CycE) | Compound
– | – | – | 169 °C | – | COc1ncccc1Nc1nc(N)n(-c2ccccn2)n1 [Example 11]
– | – | – | 249 °C | – | Nc1nc(Nc2cnc3ccccc3c2)nn1-c1ccc2ccccc2n1 [Example 12]
0.7 µM | 0.5 µM | 0.02 µM | 246 °C | 0.2 µM | Nc1nc(Nc2cccnc2)nn1-c1nccc2ccccc12 [Example 13]
– | – | – | 159 °C | – | COc1ccc(Nc2nc(N)n(-c3ccccn3)n2)c(OC)n1 [Example 14]
1.1 µM | 0.5 µM | 0.04 µM | 285 °C | 0.3 µM | Nc1nc(Nc2cncc(Br)c2)nn1-c1ccccn1 [Example 15]
– | – | 0.02 µM | 287 °C | 2.8 µM | Nc1nc(Nc2cncc3ccccc23)nn1-c1ccccn1 [Example 16]
1.5 µM | > 1 µM | 0.03 µM | 253 °C | 0.5 µM | Nc1nc(Nc2cnc3ncccc3c2)nn1-c1ccccn1 [Example 17]
– | – | – | 278 °C | – | Nc1nc(Nc2nccc3ccccc23)nn1-c1ccccn1 [Example 18]
– | – | – | 326 °C | – | Nc1nc(Nc2ccc3ccccc3n2)nn1-c1ccccn1 [Example 19]
– | – | – | 193 °C | – | Nc1nc(Nc2cnccc2Cl)nn1-c1ccccn1 [Example 20]
– | – | – | 191 °C | – | Cc1ccc(Nc2nc(N)n(-c3ccccn3)n2)c(C)n1 [Example 21]

More lines, now with the values behind:

Compound | IC50 (human MCF7 tumor cells) | IC50 (Tie2) | IC50 (KDR (VEGFR II)) | melting point | IC50 (CDK2/CycE)
Nc1nc(Nc2cccnc2)nn1-c1ccccn1 [Example 1, 5-Amino-1-(2-pyridinyl)-3-(3-pyridinylamino)-1H-1,2,4-triazole] | 1.5 µM | – | – | – | –
Cc1cc(C(F)(F)F)cc(-n2nc(Nc3cccnc3)nc2N)n1 [Example 3] | > 10 µM | > 1 µM | 0.01 µM | 212 °C | 2 µM
Nc1nc(Nc2cccnc2)nn1-c1ncccc1C(F)(F)F [Example 4] | 6 µM | > 1 µM | 0.03 µM | 255 °C | 6 µM
Nc1nc(Nc2cccnc2)nn1-c1ccc2ccccc2c1 [Example 5] | 2 µM | > 1 µM | 0.01 µM | 247 °C | 0.4 µM
Nc1nc(Nc2cccnc2)nn1-c1ccc(C(F)(F)F)cn1 [Example 6] | 4 µM | > 1 µM | 0.2 µM | 254 °C | 2 µM
Nc1nc(Nc2cccnc2)nn1-c1cccnc1 [Example 7] | – | – | – | 234 °C | –
Nc1nc(Nc2cccnc2)nn1-c1ccccc1 [Example 8] | – | – | – | 223 °C | –
COc1ccc(Nc2nc(N)n(-c3ccccn3)n2)cn1 [Example 9] | > 10 µM | 0.5 µM | 0.05 µM | 237 °C | 1 µM
Nc1nc(Nc2cnc3ccccc3c2)nn1-c1ccccn1 [Example 10] | 4 µM | 0.5 µM | 0.02 µM | 225 °C | 0.8 µM

Reference: patent US20040186288A1, “3,5-Diamino-1,2,4-triazoles as kinase inhibitors” (priority 2001, published 2004)
